In PubChem BioAssay (NCI):
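Where inhibition never reached the appropriate level, the endpoint shown equals the highest concentration tested. Otherwise, values were interpolated linearly from a five-concentration, 48-hour dose response in 96-well plates. Abbreviation: GI50, concentration required for 50% inhibition of growth. At the TGI there is no net growth.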

Tests used:
Experiment in all cases: NCI tumour cell line growth inhibition, 48 h
MALME-3M melanoma = test system: MALME-3M melanoma
COLO 205 colon = test system: COLO 205 colon
SF-295 CNS = test system: SF-295 CNS
SNB-75 CNS = test system: SNB-75 CNS
HL-60(TB) leukemia = test system: HL-60(TB) leukemia
U251 CNS = test system: U251 CNS
UACC-62 melanoma = test system: UACC-62 melanoma
MCF7 breast = test system: MCF7 breast
LOX IMVI melanoma = test system: LOX IMVI melanoma
SF-539 CNS = test system: SF-539 CNS

## OCCCCC#Cc1ccccc1C#Cc1cccnc1
MALME-3M melanoma
  GI50: 37.8 µM
  TGI: 92.2 µM
COLO 205 colon
  GI50: 28400 nM
  TGI: 94.4 µM
SF-295 CNS
  GI50: 22300 nM
  TGI: 60.4 µM
SNB-75 CNS
  GI50: 40.3 µM
  TGI: > 100 µM
HL-60(TB) leukemia
  GI50: 26800 nM
  TGI: 75.1 µM
U251 CNS
  GI50: 20.3 µM
  TGI: 78.6 µM
UACC-62 melanoma
  GI50: 35200 nM
  TGI: > 100 µM
MCF7 breast
  GI50: 67.5 µM
  TGI: > 100 µM
LOX IMVI melanoma
  GI50: 29.6 µM
  TGI: > 100 µM
SF-539 CNS
  GI50: 43 µM
  TGI: > 100 µM

## CC12CCC(=O)C(O1)C1C(=O)c3ccc4c(ccc5ccccc54)c3C(=O)C12 (stereo not drawn)
MALME-3M melanoma
  GI50: 0.945 µM
  TGI: 4.4 µM
COLO 205 colon
  GI50: 2130 nM
  TGI: > 59.1 µM
SF-295 CNS
  GI50: 1460 nM
  TGI: 3 µM
SNB-75 CNS
  GI50: 20.5 µM
  TGI: 54 µM
HL-60(TB) leukemia
  GI50: 1660 nM
  TGI: 7.21 µM
U251 CNS
  GI50: 18.8 µM
  TGI: 35.6 µM
UACC-62 melanoma
  GI50: 1460 nM
  TGI: 2.86 µM
MCF7 breast
  GI50: 3.89 µM
  TGI: 13.4 µM
LOX IMVI melanoma
  GI50: 0.477 µM
  TGI: 3.57 µM
SF-539 CNS
  GI50: 18.8 µM
  TGI: 45.3 µM

## O=C1C=CC(=O)c2c1ccc1c3ccccc3n(Cc3ccccc3)c21
MALME-3M melanoma
  TGI: 30.8 µM
COLO 205 colon
  TGI: 38.9 µM
SF-295 CNS
  TGI: > 100 µM
SNB-75 CNS
  TGI: > 100 µM
HL-60(TB) leukemia
  TGI: 15.3 µM
U251 CNS
  TGI: > 100 µM
UACC-62 melanoma
  TGI: 67.8 µM
MCF7 breast
  TGI: 45.6 µM
LOX IMVI melanoma
  TGI: 52.3 µM
SF-539 CNS
  TGI: > 74.1 µM

## N#CC1=C(N)NC(N2CCOCC2)=NC12Nc1ccccc1O2 (stereo not drawn)
MALME-3M melanoma
  GI50: > 100 µM
  TGI: > 100 µM
COLO 205 colon
  GI50: 67700 nM
  TGI: > 100 µM
SF-295 CNS
  GI50: 38500 nM
  TGI: > 100 µM
SNB-75 CNS
  GI50: > 100 µM
  TGI: > 100 µM
HL-60(TB) leukemia
  GI50: 48300 nM
  TGI: > 100 µM
U251 CNS
  GI50: 45.8 µM
  TGI: > 100 µM
UACC-62 melanoma
  GI50: 53900 nM
  TGI: > 100 µM
MCF7 breast
  GI50: 23.3 µM
  TGI: 64.2 µM
LOX IMVI melanoma
  GI50: 23.7 µM
  TGI: 81 µM
SF-539 CNS
  GI50: 78.7 µM
  TGI: > 100 µM

## CCN(CC)CCCNCc1cc(-c2ccccc2)nc2cc(Cl)ccc12
MALME-3M melanoma
  GI50: 1.63 µM
  TGI: 3.49 µM
COLO 205 colon
  GI50: 1740 nM
  TGI: 3.27 µM
SF-295 CNS
  GI50: 1800 nM
  TGI: 4.37 µM
SNB-75 CNS
  GI50: 1.57 µM
  TGI: 4.34 µM
HL-60(TB) leukemia
  GI50: 1780 nM
  TGI: 4.19 µM
U251 CNS
  GI50: 2.39 µM
  TGI: 6.67 µM
UACC-62 melanoma
  GI50: 1930 nM
  TGI: 3.59 µM
MCF7 breast
  GI50: 1.69 µM
  TGI: 4.06 µM
LOX IMVI melanoma
  GI50: 1.87 µM
  TGI: 4.27 µM
SF-539 CNS
  GI50: 1.02 µM
  TGI: 2.55 µM

## CCCCCCCCCCCNC=O
MALME-3M melanoma
  TGI: > 100 µM
COLO 205 colon
  TGI: > 100 µM
SF-295 CNS
  TGI: > 100 µM
SNB-75 CNS
  TGI: > 100 µM
HL-60(TB) leukemia
  TGI: 39.7 µM
U251 CNS
  TGI: > 100 µM
UACC-62 melanoma
  TGI: > 100 µM
MCF7 breast
  TGI: > 100 µM
LOX IMVI melanoma
  TGI: > 100 µM
SF-539 CNS
  TGI: > 100 µM

## O=C1NC(=O)C(=Cc2cn(Cc3ccccc3)c3ccccc23)C(=O)N1
MALME-3M melanoma
  GI50: 18.1 µM
  TGI: 45.7 µM
COLO 205 colon
  GI50: 1130 nM
  TGI: 9.44 µM
SF-295 CNS
  GI50: 1390 nM
  TGI: 34.5 µM
SNB-75 CNS
  GI50: 7.61 µM
  TGI: 27.1 µM
HL-60(TB) leukemia
  GI50: 21400 nM
  TGI: 81.6 µM
U251 CNS
  GI50: 12.8 µM
  TGI: 28.9 µM
UACC-62 melanoma
  GI50: 2070 nM
  TGI: 15.7 µM
MCF7 breast
  GI50: 6.54 µM
  TGI: 23 µM
LOX IMVI melanoma
  GI50: 14.1 µM
  TGI: 33.1 µM
SF-539 CNS
  GI50: 34.3 µM
  TGI: > 100 µM

## Nc1nc(Cl)nc2c1ncn2C1OC(CO)C(O)C1F (stereo not drawn)
MALME-3M melanoma
  GI50: 0.195 µM
  TGI: > 46.2 µM
COLO 205 colon
  GI50: 95.1 nM
  TGI: > 100 µM
SF-295 CNS
  GI50: 1680 nM
  TGI: 13.5 µM
SNB-75 CNS
  GI50: 0.731 µM
  TGI: > 26.1 µM
HL-60(TB) leukemia
  GI50: 308 nM
  TGI: > 100 µM
U251 CNS
  GI50: 0.213 µM
  TGI: > 100 µM
UACC-62 melanoma
  GI50: 145 nM
  TGI: 1.7 µM
MCF7 breast
  GI50: 0.163 µM
  TGI: > 100 µM
LOX IMVI melanoma
  GI50: 2.18 µM
  TGI: > 100 µM
SF-539 CNS
  GI50: 2.07 µM
  TGI: 7.48 µM

## Cc1nc(NS(=O)(=O)c2ccc(NCN3C(=O)c4ccccc4C3=O)cc2)oc1C
MALME-3M melanoma
  GI50: > 100 µM
  TGI: > 100 µM
COLO 205 colon
  GI50: > 100000 nM
  TGI: > 100 µM
SF-295 CNS
  GI50: > 100000 nM
  TGI: > 100 µM
SNB-75 CNS
  GI50: > 100 µM
  TGI: > 100 µM
HL-60(TB) leukemia
  GI50: > 100000 nM
  TGI: > 100 µM
U251 CNS
  GI50: > 100 µM
  TGI: > 100 µM
UACC-62 melanoma
  GI50: > 100000 nM
  TGI: > 100 µM
MCF7 breast
  GI50: > 100 µM
  TGI: > 100 µM
LOX IMVI melanoma
  GI50: > 100 µM
  TGI: > 100 µM
SF-539 CNS
  GI50: > 100 µM
  TGI: > 100 µM

## CC(C)=Cc1cc(C)c2ccc(C)c3c2c1C(C)=C(O)C3=O
MALME-3M melanoma
  GI50: 34.9 µM
  TGI: > 100 µM
COLO 205 colon
  GI50: 17100 nM
  TGI: 41.6 µM
SF-295 CNS
  GI50: 31400 nM
  TGI: 94.9 µM
SNB-75 CNS
  GI50: > 100 µM
  TGI: > 100 µM
HL-60(TB) leukemia
  GI50: 2990 nM
  TGI: 9.9 µM
U251 CNS
  GI50: 17.9 µM
  TGI: 56.4 µM
UACC-62 melanoma
  GI50: 19800 nM
  TGI: 46.7 µM
MCF7 breast
  GI50: 53.5 µM
  TGI: > 100 µM
LOX IMVI melanoma
  GI50: 69.3 µM
  TGI: > 100 µM
SF-539 CNS
  GI50: 32 µM
  TGI: 79.5 µM

## CC(=O)c1c[nH]c2ccc(-c3ccnc(Nc4ccc(NC(=O)C5CCCC5)c(CN5CCOCC5)c4)n3)cc12
MALME-3M melanoma
  GI50: 0.0431 µM
  TGI: 0.151 µM
COLO 205 colon
  GI50: 19.4 nM
  TGI: 0.0679 µM
SF-295 CNS
  GI50: 39.7 nM
  TGI: 0.611 µM
SNB-75 CNS
  TGI: 0.042 µM
HL-60(TB) leukemia
  GI50: 25.3 nM
  TGI: 0.0727 µM
U251 CNS
  GI50: 0.0316 µM
UACC-62 melanoma
  GI50: 20.5 nM
  TGI: 0.0481 µM
MCF7 breast
  GI50: 0.0304 µM
  TGI: 0.174 µM
LOX IMVI melanoma
  GI50: 0.0132 µM
  TGI: 0.0479 µM
SF-539 CNS
  GI50: 0.0229 µM
  TGI: 0.0681 µM
